In PubChem BioAssay AID2060513 (Molecular Pharmacology Branch, DTP, NCI, 2025):

Tested on: 299254-011-R-J1-PDC complex spheroids viability
Assay: Anticancer human tumor 299254-011-R-J1-PDC patient-derived melanoma cell line growth inhibition [GQUAD]
Details: for IC50: curve of first compound; for viability, T/C: stronger effect = lower value
In short: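 Tumor cells were grown as complex spheroids with HUVEC endothelial cells and mesenchymal stem cells as stroma. G-quadruplex stabilizers were combined with targeted agents over half-log dilutions from near the clinical Cmax, or from 10 microM.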

[1] = second compound 0.0316 µM, first compound 0.0316 µM
[2] = second compound 0.0316 µM, first compound 0.1 µM
[3] = second compound 0.0316 µM, first compound 0.316 µM
[4] = second compound 0.0316 µM, first compound 1 µM
[5] = second compound 0.0316 µM, first compound 3.16 µM
[6] = second compound 0.0316 µM, first compound 10 µM
[7] = second compound 0.1 µM, first compound 0.0316 µM
[8] = second compound 0.1 µM, first compound 0.1 µM
[9] = second compound 0.1 µM, first compound 0.316 µM
[10] = second compound 0.1 µM, first compound 1 µM
[11] = second compound 0.1 µM, first compound 3.16 µM
[12] = second compound 0.1 µM, first compound 10 µM
[13] = second compound 0.316 µM, first compound 0.0316 µM
[14] = second compound 0.316 µM, first compound 0.1 µM
[15] = second compound 0.316 µM, first compound 0.316 µM
[16] = second compound 0.316 µM, first compound 1 µM
[17] = second compound 0.316 µM, first compound 3.16 µM
[18] = second compound 0.316 µM, first compound 10 µM
[19] = second compound 1 µM, first compound 0.0316 µM
[20] = second compound 1 µM, first compound 0.1 µM
[21] = second compound 1 µM, first compound 0.316 µM
[22] = second compound 1 µM, first compound 1 µM
[23] = second compound 1 µM, first compound 3.16 µM
[24] = second compound 1 µM, first compound 10 µM
[25] = second compound 3.16 µM, first compound 0.0316 µM
[26] = second compound 3.16 µM, first compound 0.1 µM
[27] = second compound 3.16 µM, first compound 0.316 µM
[28] = second compound 3.16 µM, first compound 1 µM
[29] = second compound 3.16 µM, first compound 3.16 µM
[30] = second compound 3.16 µM, first compound 10 µM
[31] = second compound 10 µM, first compound 0.0316 µM
[32] = second compound 10 µM, first compound 0.1 µM
[33] = second compound 10 µM, first compound 0.316 µM
[34] = second compound 10 µM, first compound 1 µM
[35] = second compound 10 µM, first compound 3.16 µM
[36] = second compound 10 µM, first compound 10 µM
[37] = second compound 0.0316 µM, first compound 0.000999 µM
[38] = second compound 0.0316 µM, first compound 0.00316 µM
[39] = second compound 0.0316 µM, first compound 0.00999 µM
[40] = second compound 0.0316 µM, first compound 0.0999 µM
[41] = second compound 0.1 µM, first compound 0.000999 µM
[42] = second compound 0.1 µM, first compound 0.00316 µM
[43] = second compound 0.1 µM, first compound 0.00999 µM
[44] = second compound 0.1 µM, first compound 0.0999 µM
[45] = second compound 0.316 µM, first compound 0.000999 µM
[46] = second compound 0.316 µM, first compound 0.00316 µM
[47] = second compound 0.316 µM, first compound 0.00999 µM
[48] = second compound 0.316 µM, first compound 0.0999 µM
[49] = second compound 1 µM, first compound 0.000999 µM
[50] = second compound 1 µM, first compound 0.00316 µM
[51] = second compound 1 µM, first compound 0.00999 µM
[52] = second compound 1 µM, first compound 0.0999 µM
[53] = second compound 3.16 µM, first compound 0.000999 µM
[54] = second compound 3.16 µM, first compound 0.00316 µM
[55] = second compound 3.16 µM, first compound 0.00999 µM
[56] = second compound 3.16 µM, first compound 0.0999 µM
[57] = second compound 10 µM, first compound 0.000999 µM
[58] = second compound 10 µM, first compound 0.00316 µM
[59] = second compound 10 µM, first compound 0.00999 µM
[60] = second compound 10 µM, first compound 0.0999 µM
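Note: spheroids exposed to the agents for seven days before readout.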
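Throughout, for viability, T/C: percent viability relative to DMSO vehicle control wells = 100%.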

Structure (SMILES): CCCS(=O)(=O)Nc1ccc(F)c(C(=O)c2c[nH]c3ncc(-c4ccc(Cl)cc4)cc23)c1F + CN(C)c1ccc(Nc2c3ccc(NC(=O)CCN4CCCC4)cc3nc3cc(NC(=O)CCN4CCCC4)ccc23)cc1
- IC50 (second compound 0.0316 µM): 8590 nM
- IC50 (second compound 0.1 µM): 8100 nM
- IC50 (second compound 0.316 µM): 8910 nM
- IC50 (second compound 1 µM): 7960 nM
- IC50 (second compound 3.16 µM): 8990 nM
- IC50 (second compound 10 µM): 7920 nM
- viability, T/C [1]: 116%
- viability, T/C [2]: 111%
- viability, T/C [3]: 116%
- viability, T/C [4]: 103%
- viability, T/C [5]: 108%
- viability, T/C [6]: 41%
- viability, T/C [7]: 105%
- viability, T/C [8]: 104%
- viability, T/C [9]: 101%
- viability, T/C [10]: 88.4%
- viability, T/C [11]: 108%
- viability, T/C [12]: 38.5%
- viability, T/C [13]: 106%
- viability, T/C [14]: 111%
- viability, T/C [15]: 89.2%
- viability, T/C [16]: 103%
- viability, T/C [17]: 112%
- viability, T/C [18]: 43.9%
- viability, T/C [19]: 105%
- viability, T/C [20]: 111%
- viability, T/C [21]: 97.4%
- viability, T/C [22]: 88.8%
- viability, T/C [23]: 94.4%
- viability, T/C [24]: 39.5%
- viability, T/C [25]: 98.3%
- viability, T/C [26]: 95.1%
- viability, T/C [27]: 112%
- viability, T/C [28]: 97%
- viability, T/C [29]: 90.1%
- viability, T/C [30]: 45.8%
- viability, T/C [31]: 110%
- viability, T/C [32]: 146%
- viability, T/C [33]: 116%
- viability, T/C [34]: 119%
- viability, T/C [35]: 111%
- viability, T/C [36]: 34.5%

Structure (SMILES): CCc1c2c(nc3ccc(O)cc13)-c1cc3c(c(=O)n1C2)COC(=O)[C@]3(O)CC + CN(C)c1ccc(Nc2c3ccc(NC(=O)CCN4CCCC4)cc3nc3cc(NC(=O)CCN4CCCC4)ccc23)cc1
- IC50 (second compound 0.0316 µM): > 316 nM
- IC50 (second compound 0.1 µM): > 316 nM
- IC50 (second compound 0.316 µM): > 316 nM
- IC50 (second compound 1 µM): > 316 nM
- IC50 (second compound 3.16 µM): > 316 nM
- IC50 (second compound 10 µM): > 316 nM
- viability, T/C [37]: 89.2%
- viability, T/C [38]: 110%
- viability, T/C [39]: 89.4%
- viability, T/C [1]: 94.9%
- viability, T/C [40]: 90.8%
- viability, T/C [3]: 98%
- viability, T/C [41]: 112%
- viability, T/C [42]: 98.5%
- viability, T/C [43]: 86.2%
- viability, T/C [7]: 80%
- viability, T/C [44]: 85.1%
- viability, T/C [9]: 72%
- viability, T/C [45]: 113%
- viability, T/C [46]: 113%
- viability, T/C [47]: 71.4%
- viability, T/C [13]: 89.1%
- viability, T/C [48]: 91.5%
- viability, T/C [15]: 78%
- viability, T/C [49]: 105%
- viability, T/C [50]: 115%
- viability, T/C [51]: 91.6%
- viability, T/C [19]: 86.5%
- viability, T/C [52]: 103%
- viability, T/C [21]: 86.4%
- viability, T/C [53]: 117%
- viability, T/C [54]: 112%
- viability, T/C [55]: 76.1%
- viability, T/C [25]: 85%
- viability, T/C [56]: 84.5%
- viability, T/C [27]: 94.5%
- viability, T/C [57]: 103%
- viability, T/C [58]: 129%
- viability, T/C [59]: 92%
- viability, T/C [31]: 83.7%
- viability, T/C [60]: 84.8%
- viability, T/C [33]: 100%

Structure (SMILES): Cn1ncnc1[C@H]1c2n[nH]c(=O)c3cc(F)cc(c23)N[C@@H]1c1ccc(F)cc1 + Cc1cnc(CNC(=O)c2c(=O)c3ccc(N4CCCN(C)CC4)nc3n3c2sc2ccccc23)cn1
- IC50 (second compound 0.0316 µM): > 316 nM
- IC50 (second compound 0.1 µM): > 316 nM
- IC50 (second compound 0.316 µM): > 316 nM
- IC50 (second compound 1 µM): > 316 nM
- IC50 (second compound 3.16 µM): > 316 nM
- IC50 (second compound 10 µM): > 316 nM
- viability, T/C [37]: 94.1%
- viability, T/C [38]: 116%
- viability, T/C [39]: 125%
- viability, T/C [1]: 87.5%
- viability, T/C [40]: 108%
- viability, T/C [3]: 105%
- viability, T/C [41]: 97.2%
- viability, T/C [42]: 96.2%
- viability, T/C [43]: 91.4%
- viability, T/C [7]: 122%
- viability, T/C [44]: 121%
- viability, T/C [9]: 90.3%
- viability, T/C [45]: 93.4%
- viability, T/C [46]: 91.2%
- viability, T/C [47]: 88.3%
- viability, T/C [13]: 99.1%
- viability, T/C [48]: 111%
- viability, T/C [15]: 105%
- viability, T/C [49]: 90.9%
- viability, T/C [50]: 96.9%
- viability, T/C [51]: 84.2%
- viability, T/C [19]: 104%
- viability, T/C [52]: 83.2%
- viability, T/C [21]: 94.1%
- viability, T/C [53]: 85.3%
- viability, T/C [54]: 82.3%
- viability, T/C [55]: 68.8%
- viability, T/C [25]: 91.2%
- viability, T/C [56]: 74.2%
- viability, T/C [27]: 92.1%
- viability, T/C [57]: 71.7%
- viability, T/C [58]: 60.6%
- viability, T/C [59]: 105%
- viability, T/C [31]: 61.1%
- viability, T/C [60]: 87.4%
- viability, T/C [33]: 61.8%

Structure (SMILES): O=C(NO)c1cnc(N2CCN(S(=O)(=O)c3ccc4ccccc4c3)CC2)nc1 + CN(C)c1ccc(Nc2c3ccc(NC(=O)CCN4CCCC4)cc3nc3cc(NC(=O)CCN4CCCC4)ccc23)cc1
- IC50 (second compound 0.0316 µM): 412 nM
- IC50 (second compound 0.1 µM): 447 nM
- IC50 (second compound 0.316 µM): 415 nM
- IC50 (second compound 1 µM): 519 nM
- IC50 (second compound 3.16 µM): 512 nM
- IC50 (second compound 10 µM): 448 nM
- viability, T/C [1]: 111%
- viability, T/C [2]: 90%
- viability, T/C [3]: 65.2%
- viability, T/C [4]: 3.37%
- viability, T/C [5]: 0.26%
- viability, T/C [6]: 0.29%
- viability, T/C [7]: 103%
- viability, T/C [8]: 91.5%
- viability, T/C [9]: 69.2%
- viability, T/C [10]: 5.67%
- viability, T/C [11]: 0.22%
- viability, T/C [12]: 0.27%
- viability, T/C [13]: 109%
- viability, T/C [14]: 92.7%
- viability, T/C [15]: 65%
- viability, T/C [16]: 3.85%
- viability, T/C [17]: 0.2%
- viability, T/C [18]: 0.27%
- viability, T/C [19]: 112%
- viability, T/C [20]: 93.2%
- viability, T/C [21]: 85%
- viability, T/C [22]: 3.59%
- viability, T/C [23]: 0.21%
- viability, T/C [24]: 0.25%
- viability, T/C [25]: 100%
- viability, T/C [26]: 90.1%
- viability, T/C [27]: 82.3%
- viability, T/C [28]: 5.14%
- viability, T/C [29]: 0.2%
- viability, T/C [30]: 0.24%
- viability, T/C [31]: 115%
- viability, T/C [32]: 85.8%
- viability, T/C [33]: 71%
- viability, T/C [34]: 3.61%
- viability, T/C [35]: 0.22%
- viability, T/C [36]: 0.26%
